In patent US11033572B2, “Molecular adjuvants for enhanced cytosolic delivery of active agents” (Universiteit Gent, priority 2017, dated 2021):

Columns and labels:
H1299_eGFP cells = assay: Transfection with Lipofectamine RNAiMAX or DOTAP-DOPE liposomes, with or without desloratadine, eGFP silencing; assay type: cell-based; conditions: 40 μM, 2 h
Experimental: Lipofectamine® RNAiMAX (Invitrogen, Belgium) was applied as prescribed by the manufacturer. In short, equal volumes of RNAiMAX and siRNA dilutions were mixed and allowed to complex during 5 minutes at room temperature. Transfection occurred in Opti-MEM®. According to the guidelines, 5 pmol siRNA/well was applied to obtain optimal transfection efficiencies. To allow comparison with the siNG transfection methods, the RNAiMAX lipoplexes were additionally further diluted to 0.6 pmol siRNA/well. […] Of note, a single biological replicate was performed with three technical replicates and data are represented as the mean±SEM.
DOTAP (2,3-dioleoyloxy-propyl)-trimethylammonium)—DOPE (1,2-dioleoyl-sn-glycero-3-phosphoethanolamine) liposomes (LPS) were prepared via the lipid film hydration method. […]
For silencing experiments, H1299_eGFP cells were seeded in 24 well plates at a density of 35000 cells/well and were allowed to settle overnight. […] SiNG-mediated eGFP silencing was determined by flow cytometry. […] For each sample the forward and side scatter as well as the green fluorescent signal were measured for at least 5000 cells. The samples were excited with the 488 nm laser line and the signal was detected with the 530/30 filter using the FACSCalibur™ flow cytometer (BD Biosciences, Belgium) and BD CellQuest™ acquisition software.

H1299_WT cells = assay: Phospholipidosis detection with LipidTOX Red; assay type: cell-based; conditions: 20 h incubation
Experimental: H1299_WT cells were seeded and allowed to settle overnight as detailed previously. Next, the cells were incubated with a mixture of a 1/1000 dilution of the LipidTOX™ red phospholipidosis detection reagent (Thermo Fisher Scientific, USA) and the desired CAD in complete cell medium. Upon 20 hour incubation, the cells were fixed with 4% PFA and stored at 4° C. covered in Vectashield antifade mounting medium containing DAPI. Imaging occurred with a LSCM and a 100× oil immersion objective. DAPI and the LipidTOX™ red phospholipidosis dye were respectively excited with the 408 nm and 561 nm laser lines and the signal intensity was determined with Image J in minimum 30 cells from 5 images per condition.

`Clc1ccc2c(c1)CCc1cccnc1C2=C1CCNCC1` [(3) Desloratadine, Desloratadine] was tested, and the “cytosolic siRNA delivery via cationic liposomes” value (H1299_eGFP cells) was “not able to enhance cytosolic siRNA delivery” and the “LipidTOX Red phospholipid signal” value (H1299_WT cells) was “upregulates the presence of phospholipids in a concentration dependent fashion”.
